Assay results published in the supplement of paper PMC10307832.

Columns and labels:
Test in all cases: relative viability (nuclei count vs DMSO), 5 days (fraction); higher = more cells survive
Dactolisib + Olaparib = compound: Cn1c(=O)n(-c2ccc(C(C)(C)C#N)cc2)c2c3cc(-c4cnc5ccccc5c4)ccc3ncc21 [Dactolisib] + O=C(c1cc(Cc2n[nH]c(=O)c3ccccc23)ccc1F)N1CCN(C(=O)C2CC2)CC1 [Olaparib] (partner 8 µM)
Outline: (§1)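 Each reported value is a median over duplicate plates. It expresses relative viability: treated-well nuclei count divided by vehicle-well nuclei count. Lung cancer cell lines in 1536-well plates were dosed by pin tool a day after seeding, alone with one drug or with a fixed anchor-drug dose plus five library-drug doses (not always all listed) in √10 steps, and nuclei were counted after 5 days.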

AZ505 + Lapatinib = compound: C1CCC(CC1)N(CCNCCC2=C3C(=C(C=C2)O)NC(=O)CO3)C(=O)CCNCCC4=CC(=C(C=C4)Cl)Cl [AZ505] + CS(=O)(=O)CCNCc1ccc(-c2ccc3ncnc(Nc4ccc(OCc5cccc(F)c5)c(Cl)c4)c3c2)o1 [Lapatinib] (partner 2 µM)
Outline: as §1

Dactolisib + Tozasertib = compound: Cn1c(=O)n(-c2ccc(C(C)(C)C#N)cc2)c2c3cc(-c4cnc5ccccc5c4)ccc3ncc21 [Dactolisib] + Cc1cc(Nc2cc(N3CCN(C)CC3)nc(Sc3ccc(NC(=O)C4CC4)cc3)n2)n[nH]1 [Tozasertib] (partner 0.1 µM)
Outline: as §1

Dactolisib + Alpelisib = compound: Cn1c(=O)n(-c2ccc(C(C)(C)C#N)cc2)c2c3cc(-c4cnc5ccccc5c4)ccc3ncc21 [Dactolisib] + Cc1nc(NC(=O)N2CCC[C@H]2C(N)=O)sc1-c1ccnc(C(C)(C)C(F)(F)F)c1 [Alpelisib] (partner 2 µM)
Outline: as §1

Cell Line	relative viability (Dactolisib + Olaparib; first compound 0.002 µM)	relative viability (Dactolisib + Olaparib; first compound 0.006325 µM)	relative viability (Dactolisib + Olaparib; first compound 0.02 µM)	relative viability (Dactolisib + Olaparib; first compound 0.06325 µM)	relative viability (Dactolisib + Olaparib; first compound 0.2 µM)	relative viability (AZ505 + Lapatinib; first compound 0.08 µM)	relative viability (AZ505 + Lapatinib; first compound 0.253 µM)	relative viability (AZ505 + Lapatinib; first compound 0.8 µM)	relative viability (AZ505 + Lapatinib; first compound 2.53 µM)	relative viability (AZ505 + Lapatinib; first compound 8 µM)	relative viability (Dactolisib + Tozasertib; first compound 0.002 µM)	relative viability (Dactolisib + Tozasertib; first compound 0.006325 µM)	relative viability (Dactolisib + Tozasertib; first compound 0.02 µM)	relative viability (Dactolisib + Tozasertib; first compound 0.06325 µM)	relative viability (Dactolisib + Tozasertib; first compound 0.2 µM)	relative viability (Dactolisib + Alpelisib; first compound 0.002 µM)	relative viability (Dactolisib + Alpelisib; first compound 0.006325 µM)	relative viability (Dactolisib + Alpelisib; first compound 0.02 µM)	relative viability (Dactolisib + Alpelisib; first compound 0.06325 µM)	relative viability (Dactolisib + Alpelisib; first compound 0.2 µM)
NCI-H2228	1.01	0.486	0.326	0.177	0.104	1.09	0.957	0.939	0.885	1.11	0.256	0.294	0.191	0.112	0.0991	0.786	0.461	0.421	0.198	0.234
NCI-H2347	0.693	0.54	0.531	0.471	0.407	0.555	0.64	0.607	0.508	0.772	0.676	0.527	0.535	0.394	0.264	1.2	1.09	0.927	0.689	0.399
NCI-H2405	0.866	0.86	0.858	0.5	0.409	0.741	0.766	0.773	0.822	0.893	0.79	0.826	0.85	0.527	0.44	0.683	0.647	0.646	0.359	0.273
NCI-H3122	0.564	0.557	0.659	0.629	0.641	1.01	1.03	1.04	0.981	1.09	0.427	0.361	0.425	0.352	0.16	0.792	0.729	0.652	0.486	0.36
PC-3 [JPC-3]	1.17	1.07	1.21	1.02	0.963	0.456	0.455	0.476	0.426	0.495	0.967	0.896	0.803	0.831	0.608	1.15	1.02	0.977	0.78	0.641
PC-14	0.337	0.505	0.359	0.141	0.0895	0.316	0.296	0.336	0.411	0.319	0.576	0.679	0.629	0.215	0.125	0.946	0.932	0.887	0.407	0.252
RERF-LC-KJ	1.06	0.893	0.829	0.385	0.403	0.767	0.923	0.846	0.87	0.795	0.535	0.551	0.599	0.279	0.397	0.806	0.818	0.742	0.543	0.551
SK-LU-1	0.428	0.406	0.539	0.402	0.216	0.477	0.651	0.578	0.537	0.712	0.324	0.307	0.302	0.245	0.176	1.03	0.94	0.779	0.363	0.276
SK-MES-1	0.739	0.685	0.531	0.286	0.171	0.406	0.434	0.499	0.473	0.445	0.989	0.84	0.876	0.32	0.264	1.06	0.842	0.833	0.474	0.406
SW 1573	0.557	0.324	0.418	0.162	0.145	1.03	1.04	1.15	1.17	1.09	0.153	0.2	0.232	0.154	0.0965	0.94	0.784	0.682	0.322	0.33
